Data reported in ChEMBL document CHEMBL2069307, “Triazolbenzo[d]thiazoles: efficient synthesis and biological evaluation as neuroprotective agents” (Bioorg Med Chem Lett, 2012).
Calls of active or inactive are those of the source. The calls are words filed in the database; no cut-off is given here.

Tests used:
[1] = Solubility of the compound; format: physicochemical
SH-SY5Y [2] = experiment: Neuroprotective activity against serum starvation-induced cell death in human SH-SY5Y cells assessed as increase in cell viability at 10 and 20 uM after 3 days by tetrazolium reduction assay; format: functional, cell-based
SH-SY5Y [3] = experiment: Neuroprotective activity against serum starvation-induced cell death in human SH-SY5Y cells assessed as increase in cell […] at 20 and 40 uM after 3 days by tetrazolium reduction assay; format: functional, cell-based
SH-SY5Y [4] = experiment: Neuroprotective activity against serum starvation-induced cell death in human SH-SY5Y cells assessed as increase in cell viability at 20 and 40 uM after 3 days by tetrazolium reduction assay; format: functional, cell-based

Row | solubility [1] | solubility ([1]; read-out: solubility) | Compound | Activity (SH-SY5Y [2]) | Activity (SH-SY5Y [3]) | Activity (SH-SY5Y [4])
1 | Insoluble | – | c1ccc(-c2cn(-c3ccc4nc(N5CCOCC5)sc4c3)nn2)cc1 | inactive | – | –
2 | Insoluble | – | COC(=O)c1cn(-c2ccc3nc(N4CCOCC4)sc3c2)nn1 | inactive | – | –
3 | – | > 40 µM | CC(C)n1c(=O)c2ccccc2n1Cc1cn(-c2ccc3nc(N4CCOCC4)sc3c2)nn1 | – | Active | Active
